The source of these data is patent US10065943B2, “Pyrrolidine derivatives as angiotensin II type 2 antagonists” (NOVARTIS AG, priority 2015, dated 2018).

Each structure is given as a SMILES string. Where a SMILES comes first, the peptide text is derived from it. Side-chain parts run from the residue outwards. The star is where a group is joined. Nicotinoyl = O=C(c1cccnc1)*; Cbz = O=C(OCc1ccccc1)*

The target in one assay is T1, human AT2 receptor (Homo sapiens, UniProt P50052).
T1 construct: membranes prepared in house
T1 sequence (P50052 1-363): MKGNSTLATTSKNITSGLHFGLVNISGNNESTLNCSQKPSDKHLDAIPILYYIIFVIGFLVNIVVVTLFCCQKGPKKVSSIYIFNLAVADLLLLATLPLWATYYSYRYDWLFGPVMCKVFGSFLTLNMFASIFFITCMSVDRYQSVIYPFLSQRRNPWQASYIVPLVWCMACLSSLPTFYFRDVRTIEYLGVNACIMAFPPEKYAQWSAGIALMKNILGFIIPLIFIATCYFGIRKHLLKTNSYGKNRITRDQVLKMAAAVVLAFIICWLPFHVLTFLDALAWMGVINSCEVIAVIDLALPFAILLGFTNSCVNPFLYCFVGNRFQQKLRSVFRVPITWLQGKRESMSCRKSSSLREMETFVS
Kind of assay: AT2 receptor binding ([125I]CGP 42112A displacement, CHO-K1 membranes). The note with it: [125I]CGP 42112A 0.05 nM, membranes of CHO-K1 cells expressing human AT2 receptor; Ki from IC50 by Cheng-Prussoff equation; read-out: Ki. An excerpt: Reagents were purchased from Sigma-Aldrich, unless otherwise specified. Dialyzed fetal bovine serum (FBS) was from Life Technologies (cat. no. 10073772). Valiscreen® human angiotensin AT2 receptor cell line (cat. no. ES-070-C), [^125I]CGP 42112A (cat. no. NEX324025UC) and MicroScint™ 40 (cat. no. 6013641) were purchased from PerkinElmer. CGP 42112A (cat. no. 2569) and PD 123,319 ditrifluoroacetate (cat. no. 1361) were from Tocris Biosciences.
• 1. Growth medium • EX-CELL® CHO DHFR^− medium • 10% FBS, dialysed • 1 mM sodium pyruvate • 2 mM L-glutamine • 2. Harvesting buffer • PBS • 2 mM EDTA • 3. Suspension buffer • 50 mM Tris-HCl, pH 7.4 • 10 mM EDTA • 4. Resuspension buffer • 50 mM Tris-HCl, pH 7.4 • 0.1 mM EDTA • 0.1% sucrose • 5. Binding assay buffer • 50 mM Tris-HCl, pH 7.4 • 5 mM MgCl2 • 1 mM EDTA • 0.1% gelatin • 6. Wash buffer • 50 mM Tris-HCl, pH 7.4 Procedure for Membrane Preparation • Valiscreen® CHO-K1 cells stably expressing the human AT2 receptor were cultured in growth medium. • Cells were seeded into T-175 flasks and grown to 70-80% confluence. • Medium was removed from confluent flasks and cells were washed with warm PBS. • Cells were harvested by incubating with harvesting buffer for 10 min at 37° C., and then transferred to a centrifuge tube on ice. • Cells were centrifuged at 200 g for 5 min at 4° C. • Cell pellets were homogenised in ice-cold suspension buffer. • Homogenates were centrifuged at 40,000 g for 15 min at 4° C. • Pellets were resuspended in ice-cold resuspension buffer and centrifuged at 40,000 g for 15 min at 4° C. • Final pellets were homogenised in ice-cold resuspension buffer. • Protein concentrations were determined by BCA assay method with BSA as standard. Compound Preparation
Compounds were prepared from 10 mM stock solutions in 100% DMSO. Dilutions were made using electronic multichannel pipettes.
• Compounds dilutions were prepared in 100% DMSO at 100× final assay concentration. • Compounds were diluted in 100% DMSO to the appropriate maximal concentration. • 30 μL compound was added to row A. • 21.6 μL of 100% DMSO was added to rows B-H. • Transfer 10 μL from row A into row B (half log dilution). • Transfer 10 μL from row B into row C (half log dilution). • Transfer 10 μL from row C into row D (half log dilution). • Transfer 10 μL from row D into row E (half log dilution). • Transfer 10 μL from row E into row F (half log dilution). • Transfer 10 μL from row F into row G (half log dilution). • Transfer 10 μL from row G into row H (half log dilution). Working Plate Preparation (96-Well Plate) • Compounds were diluted 10-fold in assay buffer. • 10 μL compound solution from dose plate was transferred to corresponding well of working plate. • 90 μL assay buffer was added to the wells of working plate. • Working solutions contained 10% DMSO in assay buffer (1% DMSO final assay concentration). Controls • Total binding (high control) was determined in the absence of unlabelled ligand. A solution of 10% DMSO in assay buffer was prepared. • Non-specific binding (low control) was determined in the presence of a vast excess (10 μM) of PD 123,319. 1 mM stock solution of PD 123,319 in water was diluted 10-fold with 10% DMSO in assay buffer. Assay Plate Preparation (96-Well Plate)
15 μL compound solution was transferred to duplicate wells of assay plate. 5 compounds were tested per plate. 15 μL control solutions were transferred to columns 1 and 12 of assay plate.
Regarding `O=C(NS(=O)(=O)C1CC1)[C@@H]1C[C@H](N2CCCOc3cc(F)ccc32)CN1C(=O)C(c1ccccc1)c1ccccc1` [Compound 38, (2S,4S)—N-(Cyclopropylsulfonyl)-1-(2,2-diphenylacetyl)-4-(8-fluoro-3,4-dihydrobenzo[b][1,4]oxazepin-5(2H)-yl)pyrrolidine-2-carboxamide], the Ki came out at 0.006 µM.

Turning to `Cc1ccc2c(c1)N([C@H]1C[C@@H](C(=O)O)N(C(=O)C(c3ccccc3)c3ccccc3)C1)CCCC2` [Compound 3, (2S,4S)-1-(2,2-Diphenylacetyl)-4-(8-methyl-2,3,4,5-tetrahydro-1H-benzo[b]azepin-1-yl)pyrrolidine-2-carboxylic acid], the Ki was determined as 0.034 µM.

With `O=C(O)[C@@H]1C[C@H](N2CCCCc3cccnc32)CN1C(=O)C(c1ccccc1)c1ccccc1` [Compound 12, (2S,4S)-1-(2,2-Diphenylacetyl)-4-(5,6,7,8-tetrahydro-9H-pyrido[2,3-b]azepin-9-yl)pyrrolidine-2-carboxylic acid], the Ki came to 0.081 µM.

As to `O=C(O)[C@@H]1C[C@H](N2CCCc3ccccc32)CN1C(=O)C(c1ccccc1)c1ccccc1` [Compound 14, (2S,4S)-4-(3,4-Dihydroquinolin-1(2H)-yl)-1-(2,2-diphenylacetyl)pyrrolidine-2-carboxylic acid], the Ki was 0.0238 µM.

Take `O=C(O)[C@@H]1C[C@H](N2CCc3ccccc32)CN1C(=O)C(c1ccccc1)c1ccccc1` [Compound 29, (2S,4S)-1-(2,2-Diphenylacetyl)-4-(indolin-1-yl)pyrrolidine-2-carboxylic acid]: the Ki amounted to 0.225 µM.

`O=C(O)[C@@H]1C[C@H](N2CCCCc3ccc(F)cc32)CN1C(=O)C(c1ccccc1)c1ccccc1` [Compound 2, (2S,4S)-1-(2,2-Diphenylacetyl)-4-(8-fluoro-2,3,4,5-tetrahydro-1H-benzo[b]azepin-1-yl)pyrrolidine-2-carboxylic acid]: the Ki came to 0.0047 µM.

With `C[C@@]1(C(=O)O)C[C@H](N2CCCOc3cc(F)ccc32)CN1C(=O)C(c1ccccc1)c1ccccc1` [Compound 33, (2S,4S)-1-(2,2-Diphenylacetyl)-4-(8-fluoro-3,4-dihydrobenzo[b][1,4]oxazepin-5(2H)-yl)-2-methylpyrrolidine-2-carboxylic acid], the Ki was 0.007 µM.

As for `Cc1ccc2c(c1)N([C@@H]1C[C@@H](C(=O)O)N(C(=O)C(c3ccccc3)c3ccccc3)C1)CCCC2` [Compound 23, (2S,4R)-1-(2,2-Diphenylacetyl)-4-(8-methyl-2,3,4,5-tetrahydro-1H-benzo[b]azepin-1-yl)pyrrolidine-2-carboxylic acid], the Ki was found to be 0.0159 µM.

For `O=C(O)[C@@H]1C[C@H](N2CCCCCc3ccccc32)CN1C(=O)C(c1ccccc1)c1ccccc1` [Compound 13, (2S,4S)-1-(2,2-Diphenylacetyl)-4-(3,4,5,6-tetrahydrobenzo[b]azocin-1(2H)-yl)pyrrolidine-2-carboxylic acid], the Ki is 0.0087 µM.

`O=C(O)[C@@H]1C[C@@H](N2CCCCc3ccccc32)CN1C(=O)C(c1ccccc1)c1ccccc1` [Compound 22, (2S,4R)-1-(2,2-diphenylacetyl)-4-(2,3,4,5-tetrahydro-1H-benzo[b]azepin-1-yl)pyrrolidine-2-carboxylic acid]: the Ki was 0.0098 µM.

In the case of `O=C(O)[C@@H]1C[C@H](N2CCCOc3ccc(F)cc32)CN1C(=O)C(c1ccccc1)c1ccccc1` [Compound 8, (2S,4S)-1-(2,2-Diphenylacetyl)-4-(7-fluoro-3,4-dihydrobenzo[b][1,4]oxazepin-5(2H)-yl)pyrrolidine-2-carboxylic acid], the Ki amounted to 0.0014 µM.

On to `C[C@@]1(C(=O)O)C[C@H](N2CCCCc3cc(F)c(F)cc32)CN1C(=O)C(c1ccccc1)c1ccccc1` [Compound 31, (2S,4S)-4-(7,8-Difluoro-2,3,4,5-tetrahydro-1H-benzo[b]azepin-1-yl)-1-(2,2-diphenylacetyl)-2-methylpyrrolidine-2-carboxylic acid], for which the Ki came out at 0.0118 µM.

`CN(C)S(=O)(=O)NC(=O)[C@@H]1C[C@H](N2CCCOc3cc(F)c(F)cc32)CN1C(=O)C(c1ccccc1)c1ccccc1` [Compound 39, (2S,4S)-4-(7,8-Difluoro-3,4-dihydrobenzo[b][1,4]oxazepin-5(2H)-yl)-N—(N,N-dimethylsulfamoyl)-1-(2,2-diphenylacetyl)pyrrolidine-2-carboxamide]: the Ki came to 0.0102 µM.

With `O=C(O)[C@@H]1C[C@H](N2CCOc3ccccc3C2)CN1C(=O)C(c1ccccc1)c1ccccc1` [Compound 19, (2S,4S)-4-(2,3-Dihydrobenzo[f][1,4]oxazepin-4(5H)-yl)-1-(2,2-diphenylacetyl)pyrrolidine-2-carboxylic acid], the Ki amounted to 0.099 µM.

With `CN(C)S(=O)(=O)NC(=O)[C@@H]1C[C@H](N2CCCCc3ccccc32)CN1C(=O)C(c1ccccc1)c1ccccc1` [Compound 44, (2S,4S)—N—(N,N-Dimethylsulfamoyl)-1-(2,2-diphenylacetyl)-4-(2,3,4,5-tetrahydro-1H-benzo[b]azepin-1-yl)pyrrolidine-2-carboxamide], the Ki came to 0.0169 µM.

On to `O=C(O)[C@@H]1C[C@@H](N2CCCOc3ccc(F)cc32)CN1C(=O)C(c1ccccc1)c1ccccc1` [Compound 25, (2S,4R)-1-(2,2-Diphenylacetyl)-4-(7-fluoro-3,4-dihydrobenzo[b][1,4]oxazepin-5(2H)-yl)pyrrolidine-2-carboxylic acid], for which the Ki stood at 0.0016 µM.

For the compound `C[C@@]1(C(=O)NS(=O)(=O)C2CC2)C[C@H](N2CCCOc3cc(F)c(F)cc32)CN1C(=O)C(c1ccccc1)c1ccccc1` [Compound 42b, (2S,4S)—N-(cyclopropylsulfonyl)-4-(7,8-difluoro-3,4-dihydrobenzo[b][1,4]oxazepin-5(2H)-yl)-1-(2,2-diphenylacetyl)-2-methylpyrrolidine-2-carboxamide], the Ki is 0.011 µM.

For `C[C@@]1(C(=O)O)C[C@H](N2CCCCc3ccccc32)CN1C(=O)C(c1ccccc1)c1ccccc1` [Compound 30, (2S,4S)-1-(2,2-Diphenylacetyl)-2-methyl-4-(2,3,4,5-tetrahydro-1H-benzo[b]azepin-1-yl)pyrrolidine-2-carboxylic acid], the Ki was 0.0033 µM.

For `O=C(O)[C@@H]1C[C@@H](N2CCCOc3cc(F)c(F)cc32)CN1C(=O)C(c1ccccc1)c1ccccc1` [Compound 24, (2S,4R)-4-(7,8-Difluoro-3,4-dihydrobenzo[b][1,4]oxazepin-5(2H)-yl)-1-(2,2-diphenylacetyl)pyrrolidine-2-carboxylic acid], the Ki is 0.0014 µM.

Staying with this assay, now noted: standard compounds, mean±S.E.M.; read-out: Dissociation constants (pKi) (converted).
As for `CC[C@H](C)[C@H](NC(=O)[C@@H]1CCCN1C(=O)[C@H](Cc1c[nH]cn1)NC(=O)[C@H](CCCCNC(=O)[C@H](CCCN=C(N)N)NC(=O)OCc1ccccc1)NC(=O)[C@H](Cc1ccc(O)cc1)NC(=O)c1cccnc1)C(=O)O` [CGP 42112A, reference compound] (Nicotinoyl-YK([Arg-Cbz])HPI-OH), the Ki was 0.000178 µM.
